According to patent publication US8153360B2, “Flavivirus fusion inhibitors” (The Administrators of the Tulane Educational Fund, priority 2002, dated 2012):

What was measured:
[1] = system: pseudotype expressing the envelope glycoprotein of murine leukemia virus (MLV); assay: MLV pseudotype infectivity, luciferase activity (peptide/cytotoxicity control); type: cell-based; conditions: peptide about 25 μM (asterisked peptides 10 μM or less); for MLV number of luciferase units (lumens) produced after infection: 72 h at 37° C., vehicle 439,158; for Percent inhibition (MLV pseudotype infectivity): relative to DMSO vehicle
[2] = system: H77-E1E2 pseudotype expressing envelope glycoproteins E1 and E2 of the H77 strain of HCV; assay: HCV pseudotype infectivity, luciferase activity of cell lysates; type: cell-based, hepatitis C virus; conditions: peptide about 25 μM (asterisked peptides 10 μM or less); for H77-E1E2 number of luciferase units (lumens) produced after infection: 72 h at 37° C., vehicle 113,733; for Percent Inhibition (H77-E1E2 HCV pseudotype infectivity): relative to DMSO vehicle
HIV-1 [3] = conditions: cited from earlier work
HIV-1 [4] = conditions: preliminary results from phase III clinical trials; cited from earlier work

Substance | MLV number of luciferase units (lumens) produced after infection [1] | Percent inhibition (MLV pseudotype infectivity) [1] [%] | H77-E1E2 number of luciferase units (lumens) produced after infection [2] | Percent Inhibition (H77-E1E2 HCV pseudotype infectivity) [2] [%] | Inhibition of HIV-1 infectivity (HIV-1 [3]) | Effect on HIV-1 load in AIDS patients (HIV-1 [4])
AALVVAQLLRIPQAIMDM [Peptide 73] | 433,001 luciferase units (lumens) | 1.40 | 100,666 luciferase units (lumens) |  |  | 
AHWGVLAGIKYFSMVGNW [Peptide 76] | 473,757 luciferase units (lumens) | −7.88 | 96,283 luciferase units (lumens) |  |  | 
ALYVGDLCGSVFLVGQLF [Peptide 65] | 491,789 luciferase units (lumens) | −11.98 | 87,726 luciferase units (lumens) |  |  | 
CGSVFLVGQLFTFSPRHH [Peptide 66] | 189,683 luciferase units (lumens) | 56.81 | 23,387 luciferase units (lumens) |  |  | 
DAILHTPGCVPCVREGNA [Peptide 57] | 331,852 luciferase units (lumens) | 24.44 | 169,860 luciferase units (lumens) |  |  | 
GCVPCVREGNASRCWVAV [Peptide 58] | 329,895 luciferase units (lumens) | 24.98 | 118,767 luciferase units (lumens) |  |  | 
GIKYFSMVGNWAKVLVVL [Peptide 77] | 321,076 luciferase units (lumens) | 26.89 | 56,425 luciferase units (lumens) |  |  | 
GQLFTFSPRHHWTTQDCN [Peptide 67] | 357,577 luciferase units (lumens) | 28.58 | 64,601 luciferase units (lumens) |  |  | 
GSATLCSALYVGDLCGSV [Peptide 64] | 316,948 luciferase units (lumens) | 27.83 | 113,108 luciferase units (lumens) |  |  | 
HRMANMMMNWSPTAALV [Peptide 71] | 533,765 luciferase units (lumens) | −21.54 | 83,489 luciferase units (lumens) |  |  | 
IMDMIAGAHWGVLAGIKY [Peptide 75] | 420,026 luciferase units (lumens) | 4.36 | 113,359 luciferase units (lumens) |  |  | 
LLRIPQAIMDMIAGAHWG [Peptide 74] | 467,876 luciferase units (lumens) | −6.54 | 32,888 luciferase units (lumens) |  |  | 
LPTTQLRRHIDLLVGSAT [Peptide 62] | 415,014 luciferase units (lumens) | 5.50 | 115,966 luciferase units (lumens) |  |  | 
LVVLLLFAGVDAETHVTG [Peptide 79] | 740,034 luciferase units (lumens) | −68.51 | 101,702 luciferase units (lumens) |  |  | 
MMNWSPTAALVVAQLLRI [Peptide 72] | 392,680 luciferase units (lumens) | 10.58 | 75,763 luciferase units (lumens) |  |  | 
PRHHWTTQDCNCSIYPGH [Peptide 68] | 498,991 luciferase units (lumens) | −13.62 | 79,297 luciferase units (lumens) |  |  | 
QDCNCSIYPGHITGHRMA [Peptide 69] | 354,027 luciferase units (lumens) | 19.39 | 196,922 luciferase units (lumens) |  |  | 
RHIDLLVGSATLCSALYV [Peptide 63] | 438,440 luciferase units (lumens) | 0.16 | 57,915 luciferase units (lumens) |  |  | 
SAYQVRNSSGLYHVTNDC [Peptide 53] | 443,528 luciferase units (lumens) | −9.95 | 113,469 luciferase units (lumens) |  |  | 
SCLTVPASAYQVRNSSGL [Peptide 52] | 533,179 luciferase units (lumens) | −21.4 | 133,259 luciferase units (lumens) |  |  | 
SIVYEAADAILHTPGCVP [Peptide 56] | 433,459 luciferase units (lumens) | 1.30 | 65,612 luciferase units (lumens) |  |  | 
SSGLYHVTNDCPNSSIVY [Peptide 54] | 280,113 luciferase units (lumens) | 36.22 | 74 luciferase units (lumens) |  |  | 
TNDCPNSSVVYEAADAIL [Peptide 55] | 447,957 luciferase units (lumens) | −2.00 | 112,470 luciferase units (lumens) |  |  | 
VATRDGKLPTTQLRRHID [Peptide 61] | 423,925 luciferase units (lumens) | 3.47 | 148,796 luciferase units (lumens) |  |  | 
VGNWAKVLVVLLLFAGVD [Peptide 78] | 402,953 luciferase units (lumens) | 8.24 | 137,700 luciferase units (lumens) |  |  | 
WVAVTPTVATRDGKLPTT [Peptide 59] | 446,063 luciferase units (lumens) | −1.57 | 91,794 luciferase units (lumens) | 19.29 |  | 
WVAVTPTVATRDGKLPTT [Peptide 60] | 340,384 luciferase units (lumens) | 22.49 | 98,766 luciferase units (lumens) | 13.16 |  | 
YPGHITGHRMANMMMNW [Peptide 70] | 553,120 luciferase units (lumens) | −25.95 | 15,717 luciferase units (lumens) |  |  | 
enfuvirtide |  |  |  |  | inhibit HIV-1 infectivity | substantially reduce HIV-1 load
